Values after ≈ are worked out from the molar mass of the structure shown.
Key:
Staphylococcus aureus [1] = assay: Antibacterial activity against Staphylococcus aureus ATCC 25923 assessed as bacterial growth inhibition measured after 18 to 24 hrs by two fold microdilution assay; assay type: functional; settings: time 18-24 hrs
Escherichia coli [2] = assay: Antibacterial activity against Escherichia coli ATCC 35218 assessed as bacterial growth inhibition measured after 18 to 24 hrs by two fold microdilution assay; assay type: functional; settings: ATCC35218, time 18-24 hrs
Klebsiella pneumoniae [3] = assay: Antibacterial activity against Klebsiella pneumoniae assessed as bacterial growth inhibition measured after 18 to 24 hrs by two fold microdilution assay; assay type: functional; settings: time 18-24 hrs
Enterococcus = assay: Antibacterial activity against vancomycin resistant Enterococcus assessed as bacterial growth inhibition measured after 16 to 24 hrs by broth microdilution assay; assay type: functional; settings: time 16-24 hrs
Staphylococcus aureus [4] = assay: Antibacterial activity against methicillin resistant Staphylococcus aureus assessed as bacterial growth inhibition measured after 16 to 24 hrs by broth microdilution assay; assay type: functional; settings: time 16-24 hrs
Haemophilus influenzae = assay: Antibacterial activity against Haemophilus influenzae assessed as bacterial growth inhibition measured after 16 to 24 hrs by broth microdilution assay; assay type: functional; settings: time 16-24 hrs
Staphylococcus aureus [5] = assay: Antibacterial activity against Staphylococcus aureus assessed as bacterial growth inhibition measured after 16 to 24 hrs by broth microdilution assay; assay type: functional; settings: time 16-24 hrs
Streptococcus agalactiae = assay: Antibacterial activity against Streptococcus agalactiae assessed as bacterial growth inhibition measured after 16 to 24 hrs by broth microdilution assay; assay type: functional; settings: time 16-24 hrs
Klebsiella pneumoniae [6] = assay: Antibacterial activity against Klebsiella pneumoniae ATCC 13883 assessed as bacterial growth inhibition measured after 18 to 24 hrs by two fold microdilution assay; assay type: functional; settings: time 18-24 hrs
Escherichia coli [7] = assay: Antibacterial activity against Escherichia coli ATCC 8739 assessed as bacterial growth inhibition measured after 18 to 24 hrs by two fold microdilution assay; assay type: functional; settings: time 18-24 hrs
Staphylococcus aureus [8] = assay: Antibacterial activity against Staphylococcus aureus clinical isolate assessed as zone of inhibition at 50 mg/ml by agar diffusion assay; assay type: functional; settings: read-out: IZ
Staphylococcus aureus [9] = assay: Antibacterial activity against Staphylococcus aureus ATCC 25923 assessed as zone of inhibition at 50 mg/ml by agar diffusion assay; assay type: functional; settings: read-out: IZ
Escherichia coli [10] = assay: Antibacterial activity against Escherichia coli clinical isolate assessed as zone of inhibition at 50 mg/ml by agar diffusion assay; assay type: functional; settings: read-out: IZ
Escherichia coli [11] = assay: Antibacterial activity against Escherichia coli ATCC 25922 assessed as zone of inhibition at 50 mg/ml by agar diffusion assay; assay type: functional; settings: read-out: IZ
Escherichia coli [12] = assay: Antibacterial activity against Escherichia coli assessed as bacterial growth inhibition by agar streak dilution assay; assay type: functional
Klebsiella pneumoniae [13] = assay: Antibacterial activity against Klebsiella pneumoniae assessed as bacterial growth inhibition by agar streak dilution assay; assay type: functional
Staphylococcus aureus [14] = assay: Antibacterial activity against Staphylococcus aureus assessed as bacterial growth inhibition by agar streak dilution assay; assay type: functional
Pseudomonas aeruginosa [15] = assay: Antibacterial activity against Pseudomonas aeruginosa assessed as bacterial growth inhibition by agar cup diffusion assay; assay type: functional
Aspergillus fumigatus = assay: Antifungal activity against Aspergillus fumigatus assessed as fungal growth inhibition by agar cup diffusion assay; assay type: functional
Aspergillus niger = assay: Antifungal activity against Aspergillus niger assessed as fungal growth inhibition by agar cup diffusion assay; assay type: functional
Escherichia coli [16] = assay: Antibacterial activity against Escherichia coli assessed as bacterial growth inhibition by agar cup diffusion assay; assay type: functional
Staphylococcus aureus [17] = assay: Antibacterial activity against Staphylococcus aureus ATCC 29213 assessed as bacterial growth inhibition measured after 24 hrs by agar disc diffusion assay; assay type: functional
Pseudomonas aeruginosa [18] = assay: Antibacterial activity against Pseudomonas aeruginosa ATCC 27853 assessed as bacterial growth inhibition measured after 24 hrs by agar disc diffusion assay; assay type: functional
Escherichia coli [19] = assay: Antibacterial activity against Escherichia coli ATCC 25922 assessed as bacterial growth inhibition measured after 24 hrs by agar disc diffusion assay; assay type: functional
Staphylococcus aureus [20] = assay: Antibacterial activity against Staphylococcus aureus assessed as bacterial growth inhibition by agar cup diffusion assay; assay type: functional
[21] = test system: Mycobacterium tuberculosis; assay: Antimycobacterial activity against Mycobacterium tuberculosis H37Rv assessed as bacterial growth inhibition by agar cup diffusion assay; assay type: functional
[22] = test system: Mycobacterium tuberculosis; assay: Antimycobacterial activity against pan sensitive Mycobacterium tuberculosis R2012-123 assessed as bacterial growth inhibition by agar cup diffusion assay; assay type: functional
Klebsiella pneumoniae [23] = assay: Antibacterial activity against Klebsiella pneumoniae assessed as bacterial growth inhibition by agar cup diffusion assay; assay type: functional
Acinetobacter baumannii = assay: Antibacterial activity against Acinetobacter baumannii assessed as bacterial growth inhibition by agar dilution assay; assay type: functional
Staphylococcus aureus [24] = assay: Antibacterial activity against Staphylococcus aureus assessed as bacterial growth inhibition by broth microdilution assay; assay type: functional
Escherichia coli [25] = assay: Antibacterial activity against Escherichia coli assessed as bacterial growth inhibition by broth microdilution assay; assay type: functional
Klebsiella pneumoniae [26] = assay: Antibacterial activity against Klebsiella pneumoniae assessed as bacterial growth inhibition by two fold microdilution assay; assay type: functional
Pseudomonas aeruginosa [27] = assay: Antibacterial activity against Pseudomonas aeruginosa ATCC 27853 assessed as bacterial growth inhibition by agar dilution assay; assay type: functional
Klebsiella pneumoniae [28] = assay: Antibacterial activity against Klebsiella pneumoniae AUMC B-77 assessed as bacterial growth inhibition by agar cup diffusion method; assay type: functional
Staphylococcus aureus [29] = assay: Antibacterial activity against methicillin resistant Staphylococcus aureus assessed as bacterial growth inhibition by agar dilution assay; assay type: functional
Escherichia coli [30] = assay: Antibacterial activity against Escherichia coli ATCC 8739 assessed as bacterial growth inhibition by two fold microdilution assay; assay type: functional
Pseudomonas aeruginosa [31] = assay: Antibacterial activity against Pseudomonas aeruginosa assessed as bacterial growth inhibition by broth microdilution assay; assay type: functional
Staphylococcus aureus [32] = assay: Antibacterial activity against Staphylococcus aureus assessed as bacterial growth inhibition by agar dilution assay; assay type: functional
Staphylococcus aureus [33] = assay: Antibacterial activity against Staphylococcus aureus ATCC 6538P assessed as bacterial growth inhibition by two fold microdilution assay; assay type: functional
Staphylococcus aureus [34] = assay: Potency index, ratio of ciprofloxacin MIC to test compound MIC for antimicrobial activity against Staphylococcus aureus assessed as bacterial growth inhibition by agar cup diffusion assay; assay type: functional
Staphylococcus aureus [35] = assay: Potency index, ratio of norfloxacin MIC to test compound MIC for antimicrobial activity against Staphylococcus aureus assessed as bacterial growth inhibition measured after 18 to 24 hrs inhibition by broth microdilution assay; assay type: functional; settings: time 18-24 hrs
[36] = Anticancer activity against EAC cell assessed as cell growth inhibition measured after 24 to 72 hrs by MTT assay; assay type: functional, cell-based; settings: Ehrlich
HT-29 = assay: Anticancer activity against human HT-29 cell assessed as cell growth inhibition measured after 24 to 72 hrs by MTT assay; assay type: functional, cell-based
WRL68 = assay: Anticancer activity against human WRL68 cell assessed as cell growth inhibition measured after 24 to 72 hrs by MTT assay; assay type: functional, cell-based
Staphylococcus aureus [37] = assay: Antibacterial activity against Staphylococcus aureus ATCC 25923 assessed as bacterial growth inhibition measured after 18 to 24 hrs by agar dilution assay; assay type: functional; settings: time 18-24 hrs
Staphylococcus aureus [38] = assay: Potency index, ratio of ciprofloxacin MIC to test compound MIC for antibacterial activity against Staphylococcus aureus ATCC 25923 assessed as bacterial growth inhibition measured after 18 to 24 hrs by agar dilution assay; assay type: functional; settings: time 18-24 hrs

O=C(O)c1cn(C2CC2)c2cc(N3CCN(Cn4nc(CN5CCN(c6ccc(F)cc6)CC5)n(-c5ccccc5)c4=O)CC3)c(F)cc2c1=O
MIC (Staphylococcus aureus [1]): < 0.24 µg/mL | MIC (Escherichia coli [2]): < 0.24 µg/mL | MIC (Klebsiella pneumoniae [3]): < 0.24 µg/mL

CC(=O)NC[C@H]1CN(c2ccc(N3CCOCC3)c(F)c2)C(=O)O1 [LINEZOLID]
MIC (Enterococcus): 1 µg/mL (≈ 2.96 µM) | MIC (Staphylococcus aureus [4]): 1 µg/mL (≈ 2.96 µM) | MIC (Haemophilus influenzae): 1 µg/mL (≈ 2.96 µM) | MIC (Staphylococcus aureus [5]): 1 µg/mL (≈ 2.96 µM) | MIC (Streptococcus agalactiae): 1 µg/mL (≈ 2.96 µM)

CCn1c(CN2CCN(c3ccccc3)CC2)nn(CN2CCN(c3cc4c(cc3F)c(=O)c(C(=O)O)cn4C3CC3)CC2)c1=S
MIC (Klebsiella pneumoniae [6]): 0.125 µg/mL (≈ 0.193 µM) | MIC (Escherichia coli [7]): 0.125 µg/mL (≈ 0.193 µM)

COC(=O)c1cn(C2CC2)c2cc(N3CCN(C(=O)c4nnn(-c5ccc(SC)cc5)c4N)CC3)c(F)cc2c1=O
zone of inhibition at 50000 µg/mL (Staphylococcus aureus [8]): 26.3 mm | zone of inhibition at 50000 µg/mL (Staphylococcus aureus [9]): 26.3 mm | zone of inhibition at 50000 µg/mL (Escherichia coli [10]): 26.3 mm | zone of inhibition at 50000 µg/mL (Escherichia coli [11]): 26.3 mm

COc1c(N2CCN([S+]([O-])c3ccc(N)c(C)c3)C(C)C2)c(F)c(C)c2c(=O)c(C(=O)O)cn(C3CC3)c12 (stereo unspecified)
MIC (Escherichia coli [12]): 0.9 µg/mL (≈ 1.66 µM) | MIC (Klebsiella pneumoniae [13]): 0.9 µg/mL (≈ 1.66 µM) | MIC (Staphylococcus aureus [14]): 0.9 µg/mL (≈ 1.66 µM)

Nc1ccc(-c2nnc(-c3cn(C4CC4)c4cc(N5CCNCC5)c(F)cc4c3=O)o2)c(O)c1
MIC (Pseudomonas aeruginosa [15]): 0.3 µg/mL (≈ 0.649 µM) | MIC (Aspergillus fumigatus): 9.8 µg/mL (≈ 21.2 µM) | MIC (Aspergillus niger): 9.8 µg/mL (≈ 21.2 µM) | MIC (Escherichia coli [16]): 0.3 µg/mL (≈ 0.649 µM)

Nc1ccc(-c2nnc(-c3cn(C4CC4)c4cc(C(=O)c5ncc[nH]5)c(F)cc4c3=O)o2)c(O)c1
MIC (Pseudomonas aeruginosa [15]): 0.2 µg/mL (≈ 0.423 µM) | MIC (Aspergillus fumigatus): 9.8 µg/mL (≈ 20.7 µM) | MIC (Aspergillus niger): 9.8 µg/mL (≈ 20.7 µM) | MIC (Escherichia coli [16]): 0.2 µg/mL (≈ 0.423 µM)

COC(=O)[C@H](C)NC(=O)c1cc(=O)n(Cc2cn([C@@H](NC(=O)c3ccccc3)C(=O)OC)nn2)c2ccccc12
MIC (Staphylococcus aureus [17]): 19 µg/mL (≈ 34.8 µM) | MIC (Pseudomonas aeruginosa [18]): 19 µg/mL (≈ 34.8 µM) | MIC (Escherichia coli [19]): 19 µg/mL (≈ 34.8 µM)

COC(=O)c1cn(C2CC2)c2cc(N3CCN(C(=O)c4nnn(-c5ccc(OC)cc5)c4N)CC3)c(F)cc2c1=O
zone of inhibition at 50000 µg/mL (Staphylococcus aureus [8]): 26.3 mm | zone of inhibition at 50000 µg/mL (Staphylococcus aureus [9]): 26.3 mm | zone of inhibition at 50000 µg/mL (Escherichia coli [10]): 26.3 mm | zone of inhibition at 50000 µg/mL (Escherichia coli [11]): 26.3 mm

C=CCn1c(SCC(=O)N2CCN(c3cc4c(cc3F)c(=O)c(C(=O)O)cn4C3CC3)CC2)nnc1-c1ccccc1
MIC (Staphylococcus aureus [20]): 1.7 µg/mL (≈ 2.89 µM) | MIC [21]: 4 µg/mL (≈ 6.8 µM) | MIC [22]: 4 µg/mL (≈ 6.8 µM) | MIC (Klebsiella pneumoniae [23]): 1.7 µg/mL (≈ 2.89 µM) | MIC (Escherichia coli [16]): 1.7 µg/mL (≈ 2.89 µM)

CCn1cc(C(=O)O)c(=O)c2cc(F)c(N3CCNCC3)cc21 [NORFLOXACIN]
MIC (Acinetobacter baumannii): ≥ 4 µg/mL | MIC (Staphylococcus aureus [24]): ≤ 0.125 µg/mL | MIC (Escherichia coli [25]): ≤ 0.125 µg/mL | MIC (Klebsiella pneumoniae [26]): ≤ 0.125 µg/mL | MIC (Pseudomonas aeruginosa [27]): ≥ 4 µg/mL | MIC (Klebsiella pneumoniae [28]): 0.5 µg/mL (≈ 1.57 µM) | MIC (Staphylococcus aureus [29]): ≥ 4 µg/mL | MIC (Escherichia coli [30]): ≤ 0.125 µg/mL | MIC (Pseudomonas aeruginosa [31]): ≤ 0.125 µg/mL | MIC (Staphylococcus aureus [32]): ≥ 4 µg/mL | MIC (Staphylococcus aureus [33]): ≤ 0.125 µg/mL

O=C(O)c1cn(C2CC2)c2cc(N3CCN(Cc4nnc(-c5ccc(O)cc5)o4)CC3)c(F)cc2c1=O
MIC (Staphylococcus aureus [20]): 0.2 µg/mL (≈ 0.396 µM) | MIC (Staphylococcus aureus [24]): 0.125 µg/mL (≈ 0.247 µM) | Ratio (Staphylococcus aureus [34]): >=4 | MIC (Escherichia coli [25]): ≤ 0.125 µg/mL | Ratio (Staphylococcus aureus [35]): >=4

COc1cccc2c1C(=O)c1c(O)c3c(c(O)c1C2=O)C[C@@](O)(C(=O)CO)C[C@@H]3O[C@H]1C[C@H](N)[C@H](O)[C@H](C)O1 [DOXORUBICIN]
IC50 [36]: 259 nM | IC50 (HT-29): 259 nM | IC50 (WRL68): 259 nM

CCn1cc(C(=O)O)c(=O)c2cc(F)c(N3CCN(Cn4nc(CN5CCN(c6ccc(F)cc6)CC5)n(-c5ccccc5)c4=O)CC3)cc21
MIC (Staphylococcus aureus [1]): < 0.24 µg/mL | MIC (Escherichia coli [2]): < 0.24 µg/mL | MIC (Klebsiella pneumoniae [3]): < 0.24 µg/mL

COC(=O)c1cn(C2CC2)c2cc(N3CCN(Cc4cn(-c5ccc(C(C)=O)cc5)nn4)CC3)c(F)cc2c1=O
MIC (Staphylococcus aureus [37]): 3.12 µg/mL (≈ 5.73 µM) | Ratio (Staphylococcus aureus [38]): 2

From ChEMBL document CHEMBL5360532, “Current scenario of quinolone hybrids with potential antibacterial activity against ESKAPE pathogens” (Eur J Med Chem, 2023)
